Data taken from the NIST ThermoML archive (doi:10.1016/j.jct.2017.03.002).

Experiments:
[1] = for surface tension liquid-gas: Capillary rise; for vapor or sublimation pressure: Closed cell (Static) method
[2] = xn = mol fraction of the nth substance listed; conditions: Capillary rise

CC [ethane]
[1]
Conditions	surface tension liquid-gas [mN/m]
274.62 K	2.95
279.17 K	2.4
283.79 K	1.85
291.25 K	1.05
293.15 K	0.95
294.16 K	0.91
295.04 K	0.81
297.18 K	0.62
299.13 K	0.43
301.25 K	0.27
303.1 K	0.13

[1]
Conditions	Critical pressure [kPa]	Critical temperature [K]	vapor or sublimation pressure [kPa]
274.62 K, Liquid	–	–	2472.5
279.17 K, Liquid	–	–	2753.2
283.79 K, Liquid	–	–	3060.9
291.25 K, Liquid	–	–	3615.2
293.15 K, Liquid	–	–	3764.3
294.16 K, Liquid	–	–	3848
295.04 K, Liquid	–	–	3919.9
297.18 K, Liquid	–	–	4105.5
299.13 K, Liquid	–	–	4277.5
301.25 K, Liquid	–	–	4471.9
303.1 K, Liquid	–	–	4650.3
304.95 K, Liquid	–	–	4832.5
Liquid, Direct measurement	4870	–	–
Liquid, Visual observation in a stirred cell	–	305.39	–

C [methane] + CCC
[2]
Conditions	surface tension liquid-gas [mN/m]
272.08 K, x1 = 0.139	7.06
272.1 K, x1 = 0.45	1.71
272.14 K, x1 = 0.0508	9.38
272.24 K, x1 = 0.105	7.99
272.25 K, x1 = 0.32	3.54
272.28 K, x1 = 0.493	1.36
272.29 K, x1 = 0.265	4.85
272.33 K, x1 = 0.391	2.63
272.34 K, x1 = 0.206	5.99
272.35 K, x1 = 0.554	0.51
285.35 K, x1 = 0.0217	7.89
285.37 K, x1 = 0.0609	7.13
285.39 K, x1 = 0.398	1.57
285.5 K, x1 = 0.323	2.35
285.5 K, x1 = 0.525	0.34
285.55 K, x1 = 0.279	3.1
285.55 K, x1 = 0.474	0.76
285.65 K, x1 = 0.165	5.02
285.76 K, x1 = 0.122	6.1
303.15 K, x1 = 0.117	4.12
303.35 K, x1 = 0.318	1.27
303.37 K, x1 = 0.389	0.62
303.37 K, x1 = 0.433	0.27
303.45 K, x1 = 0.201	2.99

CCC [propane] + C
[2], x2 = 0
Conditions	surface tension liquid-gas [mN/m]
271.77 K	10.3
285.35 K	8.37
303.37 K	6.48

CCC [propane]
[1]
Conditions	surface tension liquid-gas [mN/m]
270.51 K	10.4
271.77 K	10.3
280.13 K	9.28
285.35 K	8.37
287.35 K	8.37
289.65 K	8.09
291.75 K	7.78
297.98 K	7.12
300.92 K	6.57
303.37 K	6.48
314.06 K	4.99

[1], Liquid
Conditions	vapor or sublimation pressure [kPa]
270.51 K	437.5
271.77 K	456
280.13 K	583.7
285.35 K	680.6
287.35 K	715.4
289.65 K	762.1
291.75 K	806.2
297.98 K	948.2
300.92 K	1021.2
303.37 K	1083.1
314.06 K	1398
